Experimental data taken from patent US12729407B2, “Mucins and isoforms thereof in diseases characterized by barrier dysfunction” (priority 2020, dated 2026).
Where two headings read alike, the source gives them in different places.

Tested on: Calu3 cells infected with SARS-CoV-2
Type: cell-based, human
[1] = Calu3 cells, SARS-CoV-2 0.1 MOI 2 h, then drug 48 h, vs untreated infected cells

| Compound | MUC1 mRNA expression [1] | MUC4 mRNA expression [1] | MUC21 mRNA expression [1] | MUC1 mRNA expression | MUC4 mRNA expression | MUC5AC mRNA expression | MUC5B mRNA expression | MUC13 mRNA expression | MUC21 mRNA expression | mucin hypersecretion (mucins of the signature: MUC13, MUC21, MUC16 and MUC1) (concluding remark on the Calu3 drug screen) |
| --- | --- | --- | --- | --- | --- | --- | --- | --- | --- | --- |
| Tocilizumab [toculizumab] | significantly reduce | significantly reduce | significantly reduce | – | – | – | – | – | – | – |
| NC(=O)c1nc(F)c[nH]c1=O [favipiravir] | – | – | – | increase | decrease | decrease | decrease | decrease | decrease | suppress mucin hypersecretion |
